The values below come from ChEMBL document CHEMBL1126956, “Synthesis and biological evaluation of cholecystokinin analogs in which the Asp-Phe-NH2 moiety has been replaced by a 3-amino-7-phenylheptanoic acid or a 3-amino-6-(phenyloxy)hexanoic acid” (J Med Chem, 1993).

Structures are written as SMILES. Where a SMILES comes first, the peptide text is derived from it. [ ]: non-standard residue; d: D form. The star is where a group is joined. sY = N[C@@H](Cc1ccc(OS(=O)(=O)O)cc1)C(=O)O; NHPhenethyl = c1ccc(CCN*)cc1; OCH2CH2Ph = c1ccc(CCO*)cc1; Nle = CCCC[C@H](N)C(=O)O; Boc = CC(C)(C)OC(=O)*

Assay [1] has as its target T1, Gastrin/cholecystokinin type B receptor (Homo sapiens, UniProt P32239).
T1 sequence (P32239 whole entry): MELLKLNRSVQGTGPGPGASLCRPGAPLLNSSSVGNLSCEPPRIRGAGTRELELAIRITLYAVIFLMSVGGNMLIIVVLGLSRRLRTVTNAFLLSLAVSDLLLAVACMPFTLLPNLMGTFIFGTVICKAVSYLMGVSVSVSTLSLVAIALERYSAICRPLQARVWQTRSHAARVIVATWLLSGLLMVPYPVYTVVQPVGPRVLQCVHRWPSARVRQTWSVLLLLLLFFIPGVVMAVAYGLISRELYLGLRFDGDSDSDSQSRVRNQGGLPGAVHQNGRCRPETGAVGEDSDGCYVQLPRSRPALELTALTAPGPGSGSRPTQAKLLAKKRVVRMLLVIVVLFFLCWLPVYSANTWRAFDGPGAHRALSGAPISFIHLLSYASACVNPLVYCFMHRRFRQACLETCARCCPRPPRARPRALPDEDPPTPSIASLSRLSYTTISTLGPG
The assay can be described thus: Inhibition of [125I]BH-CCK- binding to cholecystokinin type B receptor from jurkat Tcells. The format is cell-based.

The target in assay [2] is Gastrin/cholecystokinin type B receptor (Cavia porcellus). The assay can be described thus: Inhibition of [125I]BH-CCK- binding to cholecystokinin type B receptor from guinea pig brain membranes.
In assay [3] the target is Cholecystokinin receptor type A (Rattus norvegicus) (UniProt P30551). The assay can be described thus: Inhibition of [125I]BH-CCK- binding to peripheral cholecystokinin type A receptor from rat pancreatic acini.

Usually IC50 stands for the concentration that inhibits the measured activity by half. A higher IC50 goes with weaker potency in that assay. As for `CCCC[C@H](NC(=O)[C@@H](Cc1c[nH]c2ccccc12)NC(=O)CNC(=O)[C@H](CCSC)NC(=O)[C@H](Cc1ccc(OS(=O)(=O)O)cc1)NC(=O)OC(C)(C)C)C(=O)N[C@@H](CC(=O)O)C(=O)OCCc1ccccc1`, the 50% inhibitory concentration (IC50) in assay [1] worked out at 210 nM.
For `CCCC[C@H](NC(=O)[C@H](Cc1ccc(OS(=O)(=O)O)cc1)NC(=O)OC(C)(C)C)C(=O)NCC(=O)N[C@@H](Cc1c[nH]c2ccccc12)C(=O)N[C@@H](CCCC)C(=O)N[C@@H](CC(=O)O)C(=O)NCCc1ccccc1` (Boc-[sY][Nle]GW[Nle]D-NHPhenethyl), the figures for the IC50 in assay [1], in assay [2] and in assay [3] were 13 nM, 10 nM and 30 nM, respectively.
Regarding `CCCC[C@H](NC(=O)[C@H](Cc1ccc(OS(=O)(=O)O)cc1)NC(=O)OC(C)(C)C)C(=O)NCC(=O)N[C@@H](Cc1c[nH]c2ccccc12)C(=O)N[C@@H](CCCC)C(=O)N[C@@H](CC(=O)O)C(=O)OCCc1ccccc1` (Boc-[sY][Nle]GW[Nle]D-OCH2CH2Ph), the results for the IC50 in assay [1] and in assay [3] were 2 nM and 3 nM, respectively.
